Source: ChEMBL document CHEMBL4616701, “Design, Synthesis, and Pharmacological Evaluation of Second Generation EZH2 Inhibitors with Long Residence Time” (ACS Med Chem Lett, 2020)
The source made the active and inactive calls. No cut-off for these calls is given here.

Key:
[1] = target: T1, Histone-lysine N-methyltransferase EZH2 (Homo sapiens, UniProt Q15910); assay: Inhibition of N-terminal FLAG-tagged EZH2 in PRC2 complex (unknown origin) expressed in baculovirus infected Sf9 cells using H2N-RKQLATKAAR(Kme0)SAPATGGVKKP-NTPEGBiot peptide as substrate preincubated with [3H]SAM for 4 to 5 hrs followed by substrate addition and measured after 20 hrs by Topcount reader analysis
Target sequence in this assay (Q15910 whole entry): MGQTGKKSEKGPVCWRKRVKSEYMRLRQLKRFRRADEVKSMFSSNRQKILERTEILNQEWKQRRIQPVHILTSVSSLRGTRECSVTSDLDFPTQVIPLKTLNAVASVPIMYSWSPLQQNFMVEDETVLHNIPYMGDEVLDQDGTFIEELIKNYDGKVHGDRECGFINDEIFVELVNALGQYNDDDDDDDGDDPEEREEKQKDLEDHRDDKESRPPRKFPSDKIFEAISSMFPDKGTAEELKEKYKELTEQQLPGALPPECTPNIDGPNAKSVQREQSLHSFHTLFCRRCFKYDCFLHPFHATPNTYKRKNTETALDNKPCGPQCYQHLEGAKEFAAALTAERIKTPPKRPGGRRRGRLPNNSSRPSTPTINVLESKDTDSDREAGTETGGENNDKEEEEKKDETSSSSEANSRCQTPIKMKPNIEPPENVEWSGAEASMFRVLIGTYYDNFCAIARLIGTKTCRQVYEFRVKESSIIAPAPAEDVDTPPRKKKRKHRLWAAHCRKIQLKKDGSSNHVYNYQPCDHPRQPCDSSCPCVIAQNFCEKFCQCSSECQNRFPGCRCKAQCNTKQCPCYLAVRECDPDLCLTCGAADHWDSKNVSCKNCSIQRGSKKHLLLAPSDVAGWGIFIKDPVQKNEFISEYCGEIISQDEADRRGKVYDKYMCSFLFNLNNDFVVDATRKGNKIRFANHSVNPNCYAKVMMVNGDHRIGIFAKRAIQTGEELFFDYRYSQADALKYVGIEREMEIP

[2] = target: T1, Histone-lysine N-methyltransferase EZH2; assay: Inhibition of EZH2 in human HeLa cells assessed as inhibition of trimethylation of H3K27 after 72 hrs by AlphaLISA assay; format: cell-based
Target sequence in this assay (Q15910 whole entry): as above

[3] = target: T1, Histone-lysine N-methyltransferase EZH2; assay: Binding affinity to N-terminal FLAG-tagged EZH2 in PRC2 complex (unknown origin) expressed in baculovirus infected Sf9 cells assessed as residence time at 21 nM pre-equilibrated with enzyme followed by incubation with bio-EZH2i and measured after 3 to 6 mins by TR-FRET assay
Target sequence in this assay (Q15910 whole entry, looked up): as the sequence (Q15910 whole entry) above

CYP3A4 = assay: Upregulation of CYP3A4 mRNA expression in human Fa2N-4 cells at 10 uM after 3 days relative to control; format: ADME, cell-based; conditions: read-out: FC
[4] = Clearance in iv dosed mouse; format: ADME, organism-based; conditions: in vivo
KARPAS-422 [5] = assay: Antitumor activity against human KARPAS422 cells xenografted in CB-17 SCID mouse assessed as tumor growth inhibition at 50 mg/kg, sc bid for 16 days and measured three times per week by caliper method relative to control; format: functional; conditions: KARPAS-422, sc, 384 h, read-out: TGI
KARPAS-422 [6] = assay: Antitumor activity against human KARPAS422 cells xenografted in CB-17 SCID mouse assessed as tumor regression at 50 mg/kg, sc bid for 16 days and measured at day 7 by caliper method; format: functional, organism-based
[7] = Protein binding in mouse plasma; format: ADME, cell-free; conditions: read-out: PPB (converted)
[8] = Oral bioavailability in mouse; format: ADME, organism-based; conditions: in vivo
[9] = Toxicity in CB-17 SCID mouse xenografted with human KARPAS422 cells assessed as body weight loss at 50 mg/kg, sc bid for 16 days; format: organism-based, KARPAS-422; conditions: in vivo, 384 h
[10] = Protein binding in human plasma; format: ADME, cell-free; conditions: read-out: PPB (converted)
KARPAS-422 [11] = assay: Antiproliferative activity against human KARPAS422 cells assessed as growth inhibition after 8 days by Cell Titer-Glo luminescent assay; format: functional; conditions: KARPAS-422, 192 h
KARPAS-422 [12] = assay: Antitumor activity against human KARPAS422 cells xenografted in CB-17 SCID mouse assessed as tumor growth inhibition at 25 mg/kg, po bid and measured on day 21 by caliper method relative to control; format: functional; conditions: KARPAS-422, po, 504 h, read-out: TGI
KARPAS-422 [13] = assay: Antitumor activity against human KARPAS422 cells xenografted in CB-17 SCID mouse assessed as tumor growth inhibition at 25 mg/kg, po bid and measured on day 25 by caliper method relative to control; format: functional; conditions: KARPAS-422, po, 600 h, read-out: TGI
[14] = Toxicity in CB-17 SCID mouse xenografted with human KARPAS422 cells assessed as effect on body weight at 25 mg/kg, po bid and measured on day 21; format: organism-based, KARPAS-422; conditions: in vivo
[15] = Dose normalized AUClast in CB-17 SCID mouse xenografted with human KARPAS422 cells at 25 mg/kg, po bid for 21 days and measured after 10 hrs post first dose at day 1 by LC-MS analysis; format: ADME, organism-based, KARPAS-422; conditions: in vivo
[16] = target: T1, Histone-lysine N-methyltransferase EZH2; assay: In vivo inhibition of EZH2 in CB-17 SCID mouse xenografted with human KARPAS422 cells assessed as reduction in trimethylation of H3K27 in tumor at 25 mg/kg, po bid for 21 days measured after 14 days by MSD-ELISA; format: functional, organism-based; conditions: KARPAS-422
Target sequence in this assay (Q15910 whole entry, looked up): as the sequence (Q15910 whole entry) above

[17] = Time during which free drug concentration exceeds EC50 for inhibition of EZH2 in human HeLa cells in CB-17 SCID mouse xenografted with human KARPAS422 cells at 25 mg/kg, po bid for 21 days and measured up to 10 hrs post first dose at day 1 by LC-MS analysis; format: organism-based; conditions: in vivo
[18] = Oral bioavailability in CB-17 SCID mouse xenografted with human KARPAS422 cells at 25 mg/kg, bid for 21 days measured up to 10 hrs post first dose at day 1 by LC-MS analysis; format: ADME, organism-based, KARPAS-422; conditions: in vivo
KARPAS-422 [19] = assay: Antitumor activity against human KARPAS422 cells xenografted in CB-17 SCID mouse assessed as tumor regression at 25 mg/kg, po bid and measured on day 14 by caliper method; format: functional, organism-based
CWR22R = assay: Antitumor activity against human 22Rv1 cells xenografted in CB-17 SCID mouse assessed as tumor growth inhibition at 50 mg/kg, sc bid and measured three times per week by caliper method relative to control; format: functional; conditions: 22Rv1, sc, read-out: TGI
KARPAS-422 [20] = assay: Antitumor activity against human KARPAS422 cells xenografted in CB-17 SCID mouse assessed as tumor regression at 50 mg/kg, sc bid for 16 days and measured at day 9 by caliper method; format: functional, organism-based
KARPAS-422 [21] = assay: Antitumor activity against human KARPAS422 cells xenografted in CB-17 SCID mouse assessed as tumor regression at 160 mg/kg, po bid for 23 days and measured three times per week by caliper method; format: functional, organism-based

Row | Compound | IC50 [1] [nM] | EC50 [2] [nM] | TIME [3] [h] | fold induction at 72 h, 10 µM (CYP3A4) | GI50 (KARPAS-422 [11]) [nM] | also measured
1 | Cc1cc(Cl)c(CNC(=O)c2c(C)n([C@H](C)C3CCN(CC(F)(F)F)CC3)c3ccccc23)c(=O)[nH]1 | 0.2 to 30 | < 100 |  |  |  | 
2 | Cc1cc(Sc2ccccc2)c(CNC(=O)c2c(C)n([C@H](C)C3CCN(CC(F)(F)F)CC3)c3ccccc23)c(=O)[nH]1 | 0.62 | 181 |  |  |  | 
3 | CSc1cc(C)[nH]c(=O)c1CNC(=O)c1c(C)n([C@H](C)C2CCN(CC(C)(C)O)CC2)c2ccccc12 | 0.067 | 26 | 7.52 |  |  | 
4 | Cc1cc(Cl)[nH]c(=O)c1CNC(=O)c1c(C)n([C@H](C)C2CCN(CC(F)(F)F)CC2)c2ccccc12 | 0.2 to 30 | > 1000 |  |  |  | 
5 | CCSc1cc(C)[nH]c(=O)c1CNC(=O)c1c(C)n([C@H](C)C2CCN(CC(F)(F)F)CC2)c2ccccc12 | 0.73 | 45.3 |  |  |  | 
6 | CSc1cc(C)[nH]c(=O)c1CNC(=O)c1c(C)n([C@H](C)C2CCN(CC(F)(F)F)CC2)c2ccccc12 | 0.18 | 2.5 | 46.3 | 25 | 53 | clearance [4]: 9.33 mL/min/kg; inhibition in vivo at 50 mg/kg (KARPAS-422 [5]): 77 to 88%; Activity (KARPAS-422 [6]): Active; fraction unbound [7]: 0.002; bioavailability [8]: 40%; Activity [9]: Non-Toxic; fraction unbound [10]: 0.03
7 | CSc1cc(C)[nH]c(=O)c1CNC(=O)c1c(C)n([C@H](C)[C@H]2CC[C@H](N3CC(OC4CC4)C3)CC2)c2ncccc12 | 0.057 | 1.8 | 57.5 | 2.2 | 12 to 12.2 | inhibition in vivo at 25 mg/kg (KARPAS-422 [12]): 75%; inhibition in vivo at 25 mg/kg (KARPAS-422 [13]): ≥ 91%; clearance [4]: 55.8 mL/min/kg; Activity [14]: Non-Toxic; fraction unbound [7]: 0.13; AUClast/dose [15]: 46.5 ng·h/mL/(mg/kg); inhibition [16]: Active; T>fEC50 [17]: 4 h; fraction unbound [10]: 0.03; bioavailability [18]: 15%; Activity (KARPAS-422 [19]): Active
8 | CSc1cc(C)[nH]c(=O)c1CNC(=O)c1c(C)n([C@H](C)[C@H]2CC[C@H](N3CC(OC4CC4)C3)CC2)c2c(F)cccc12 | 0.063 | 3.4 | 100 |  | 32 | 
9 | CSc1cc(C)[nH]c(=O)c1CNC(=O)c1c(C)n([C@H](C)[C@H]2CC[C@H](NC3COC3)CC2)c2ccccc12 | 0.13 | 6.7 | 138 | 5 |  | 
10 | Cc1cc(SCc2ccccc2)c(CNC(=O)c2c(C)n([C@H](C)C3CCN(CC(F)(F)F)CC3)c3ccccc23)c(=O)[nH]1 | 3.8 |  |  |  |  | 
11 | Cc1cc(C)c(CNC(=O)c2c(C)n([C@H](C)C3CCN(CC(F)(F)F)CC3)c3ccccc23)c(=O)[nH]1 | 0.2 to 30 |  |  |  |  | 
12 | Cc1cc(SC2CCC2)c(CNC(=O)c2c(C)n([C@H](C)C3CCN(CC(F)(F)F)CC3)c3ccccc23)c(=O)[nH]1 | 0.49 | 48.5 |  |  |  | 
13 | Cc1cc(S(C)(=O)=O)c(CNC(=O)c2c(C)n([C@H](C)C3CCN(CC(F)(F)F)CC3)c3ccccc23)c(=O)[nH]1 | 4.1 | > 304 |  |  |  | 
14 | CSc1cc(C)[nH]c(=O)c1CNC(=O)c1c(C)n([C@H](C)[C@H]2CC[C@@H](N3CC(F)(F)C3)CC2)c2ccccc12 | 0.18 | 5.9 | 29.1 | 45 |  | 
15 | COc1cc(C)[nH]c(=O)c1CNC(=O)c1c(C)n([C@H](C)C2CCN(CC(F)(F)F)CC2)c2ccccc12 [CPI-1205] |  |  | 4.5 |  | 436 | 
16 | CSc1cc(C)[nH]c(=O)c1CNC(=O)c1c(C)n([C@H](C)[C@H]2CC[C@H](N3CC(OC4CC4)C3)CC2)c2ncncc12 | 0.1 | 6.3 | 51.9 |  | 29 | 
17 | COc1cc(C)c(CNC(=O)c2c(C)n([C@H](C)C3CCN(CC(F)(F)F)CC3)c3ccccc23)c(=O)[nH]1 | 0.2 to 30 | > 1000 |  |  |  | 
18 | CSc1cc(C)[nH]c(=O)c1CNC(=O)c1c(C)n([C@H](C)[C@H]2CC[C@H](N3CC(OC(F)F)C3)CC2)c2ccccc12 | 0.1 | 0.7 | 211 | 32 | 12 | 
19 | CSc1cc(C)[nH]c(=O)c1CNC(=O)c1c(C)n([C@H](C)[C@H]2CC[C@H](N3CC(OC4CC4)C3)CC2)c2ncc(F)cc12 | 0.06 | 1.8 | 65.8 | 12 | 24 | 
20 | CSc1cc(C)[nH]c(=O)c1CNC(=O)c1c(C)n([C@H](C)[C@H]2OC[C@H](N(C)C)CO2)c2ccccc12 | 0.16 | 2.4 | 40.9 | 3 |  | 
21 | COC1CN([C@H]2CC[C@H]([C@@H](C)n3c(C)c(C(=O)NCc4c(SC)cc(C)[nH]c4=O)c4ccccc43)CC2)C1 | 0.059 | 2 | 141 | 2 | 33 | inhibition in vivo at 50 mg/kg (CWR22R): 55%; Activity (KARPAS-422 [20]): Active; Activity [9]: Non-Toxic
22 | CSc1cc(C)[nH]c(=O)c1CNC(=O)c1c(C)n([C@H](C)[C@H]2CC[C@H](N3CC(OC(F)(F)F)C3)CC2)c2ccccc12 | 0.14 | 1.8 |  | 41 | 32 | 
23 | CSc1cc(C)[nH]c(=O)c1CNC(=O)c1c(C)n([C@H](C)[C@H]2CC[C@H](N3CC(OC4CC4)C3)CC2)c2ccccc12 | 0.072 | 3.5 | 289 | 17 | 13 | 
24 | CSc1cc(C)[nH]c(=O)c1CNC(=O)c1c(C)n([C@H](C)C2CCN(C3COC3)CC2)c2ccccc12 | 0.12 | 5.1 | 42.5 | 6.4 |  | 
25 | CSc1cc(C)[nH]c(=O)c1CNC(=O)c1c(C)n([C@H](C)[C@H]2CC[C@H](N3CC(OC4CC4)C3)CC2)c2ncc(Cl)cc12 | 0.092 | 3.5 | 64.2 | 1.6 | 37 | 
26 | Cc1cc([S+](C)[O-])c(CNC(=O)c2c(C)n([C@H](C)C3CCN(CC(F)(F)F)CC3)c3ccccc23)c(=O)[nH]1 (stereo partly drawn) | 19 | > 304 |  |  |  | 
27 | CCN(c1cc(-c2ccc(CN3CCOCC3)cc2)cc(C(=O)NCc2c(C)cc(C)[nH]c2=O)c1C)C1CCOCC1 |  |  |  |  |  | Activity (KARPAS-422 [21]): Active
